Test results taken from PubChem BioAssay (NCI).
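Exposure lasted 48 hours, with cells grown in 96-well plates and compounds tested at five concentrations. TGI: total growth inhibition.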

Test system: SF-268 CNS
Assay: NCI tumour cell line growth inhibition, 48 h

Structure (SMILES)	TGI [µM]
O=S(=O)(c1ccccc1)N1N=C2c3ccccc3CCC[C@H]2C1c1ccccc1 (stereo partly specified)	> 100
CCOC(=O)/C(=C/c1ccc(N(C)C)cc1)N(CC)CC	> 100
CC1CN=C(N(C(=O)Nc2ccccc2)c2ccc(Cl)c(Cl)c2)S1 (stereo unspecified)	> 100
CC(=O)O[C@H]1CC[C@@]2(C)C(=CC[C@H]3[C@@H]4C/C(=C\c5ccc(N(C)C)cc5)[C@H](OC(C)=O)[C@@]4(C)CC[C@@H]32)C1	26.7
CC(C)(C)[Si](C)(C)Oc1ccc(C2CNC(=O)C23CCC(=O)N3Cc2ccccc2)cc1 (stereo unspecified)	26

Test system: SF-539 CNS
Assay: NCI tumour cell line growth inhibition, 48 h

Structure (SMILES)	TGI [µM]
COC(=O)[C@@]1(C)/C(=N/NS(=O)(=O)c2ccc(C)cc2)CCC[C@@H]1C	> 100
COc1ccc(OC)c(/C=C(/C#N)c2ccccc2)c1	> 100
COC(=O)C(C(=O)Cc1ccccc1[N+](=O)[O-])C(=O)OC	> 100
CCCCC/C=C1\CCC(CN(C)C)C1=O (stereo unspecified)	24.1
Cc1ccc(Cl)c2c(=O)c3ccc(N)cc3sc12	45.1
C=CCN1CCC(O)(c2cc(C(=O)OCC)[nH]c2-c2cc(C)no2)C1 (stereo unspecified)	> 100
CC1CN=C(N(C(=O)Nc2ccc(Cl)c(Cl)c2)c2ccccc2)S1 (stereo unspecified)	> 100
CNCCCn1c2ccccc2c2c3c(c(-c4ccsc4)cc21)C(=O)NC3=O	0.182
C=C(C)C1CCC2(C)CC1c1c(c(C)cc3c1[nH]c1ccccc13)O2 (stereo unspecified)	> 25
CC(C)(C)OC/C=C(/CO)[C@@H]1C=C[C@H](O)C1	> 100
CN(CCN(C)C(=O)CCn1cc(F)c(=O)[nH]c1=O)C(=O)CCn1cc(F)c(=O)[nH]c1=O	> 100
CCOC1c2cc(C(C)C)c(O)c(O)c2[C@@]23CCCC(C)(C)C2C1OC3=O (stereo partly specified)	> 100
C=CN1C(=O)[C@H](Oc2ccccc2)[C@@H]1c1ccccc1	31.1
CS(=O)(=O)c1ccc(-c2cc(-c3ccc(S(C)(=O)=O)cc3)[n+](-c3cc(-c4ccccc4)c([O-])c(-c4ccccc4)c3)c(-c3ccc(S(C)(=O)=O)cc3)c2)cc1	> 100
Nc1ccn([C@H]2CO[C@@H](CO)[C@@H]2O)c(=O)n1	> 100
COc1ccc(C(C#N)NNC(=O)Cc2ccccc2)cc1OC (stereo unspecified)	> 100
O=C(CC(C(=O)c1ccsc1)c1ccccc1)c1ccccc1 (stereo unspecified)	> 100
CC(C)=CC1CC(=[N+]=[N-])C(=O)C1(C)C (stereo unspecified)	> 100
COc1cccc(C2CC23C(=O)NC(=O)NC3=O)c1 (stereo unspecified)	> 100
O=C(CSc1c2ccccc2nc2ccccc12)Nc1ccccc1-c1ccccc1NC(=O)CSc1c2ccccc2nc2ccccc12	> 64.7
CC1(C)OC[C@@H]([C@H](O)C2C=CC(=O)S2)O1 (stereo partly specified)	> 100
CCOC(=O)Cc1ccc(Nc2nc3ccccc3nc2C(=O)OCC)cc1	> 100
O=S(=O)(c1ccccc1)N1N=C2c3ccccc3CCC[C@H]2C1c1ccccc1 (stereo partly specified)	> 100
CCOC(=O)/C(=C/c1ccc(N(C)C)cc1)N(CC)CC	> 100
CC1CN=C(N(C(=O)Nc2ccccc2)c2ccc(Cl)c(Cl)c2)S1 (stereo unspecified)	> 100
CC(=O)O[C@H]1CC[C@@]2(C)C(=CC[C@H]3[C@@H]4C/C(=C\c5ccc(N(C)C)cc5)[C@H](OC(C)=O)[C@@]4(C)CC[C@@H]32)C1	27.9
CC(C)(C)[Si](C)(C)Oc1ccc(C2CNC(=O)C23CCC(=O)N3Cc2ccccc2)cc1 (stereo unspecified)	30.7

Test system: SK-OV-3 ovarian
Assay: NCI tumour cell line growth inhibition, 48 h

Structure (SMILES)	TGI [µM]
COC(=O)[C@@]1(C)/C(=N/NS(=O)(=O)c2ccc(C)cc2)CCC[C@@H]1C	> 100
COc1ccc(OC)c(/C=C(/C#N)c2ccccc2)c1	> 100
COC(=O)C(C(=O)Cc1ccccc1[N+](=O)[O-])C(=O)OC	> 100
CCCCC/C=C1\CCC(CN(C)C)C1=O (stereo unspecified)	27.4
O=C(Cn1c(-c2ccccc2)cc2ccccc21)N1CCCC1	> 100
C=CCN1CCC(O)(c2cc(C(=O)OCC)[nH]c2-c2cc(C)no2)C1 (stereo unspecified)	> 100
CNCCCn1c2ccccc2c2c3c(c(-c4ccsc4)cc21)C(=O)NC3=O	2.63
C=C(C)C1CCC2(C)CC1c1c(c(C)cc3c1[nH]c1ccccc13)O2 (stereo unspecified)	> 25
CC(C)(C)OC/C=C(/CO)[C@@H]1C=C[C@H](O)C1	> 100
CCOC1c2cc(C(C)C)c(O)c(O)c2[C@@]23CCCC(C)(C)C2C1OC3=O (stereo partly specified)	> 100
C=CN1C(=O)[C@H](Oc2ccccc2)[C@@H]1c1ccccc1	78.8
Nc1ccn([C@H]2CO[C@@H](CO)[C@@H]2O)c(=O)n1	> 100
COc1ccc(C(C#N)NNC(=O)Cc2ccccc2)cc1OC (stereo unspecified)	> 100
O=C(CC(C(=O)c1ccsc1)c1ccccc1)c1ccccc1 (stereo unspecified)	> 100
CC(C)=CC1CC(=[N+]=[N-])C(=O)C1(C)C (stereo unspecified)	> 100
COc1cccc(C2CC23C(=O)NC(=O)NC3=O)c1 (stereo unspecified)	> 100
O=C(CSc1c2ccccc2nc2ccccc12)Nc1ccccc1-c1ccccc1NC(=O)CSc1c2ccccc2nc2ccccc12	> 100
CC1(C)OC[C@@H]([C@H](O)C2C=CC(=O)S2)O1 (stereo partly specified)	> 100
CCOC(=O)Cc1ccc(Nc2nc3ccccc3nc2C(=O)OCC)cc1	> 100
O=S(=O)(c1ccccc1)N1N=C2c3ccccc3CCC[C@H]2C1c1ccccc1 (stereo partly specified)	> 100
CCOC(=O)/C(=C/c1ccc(N(C)C)cc1)N(CC)CC	> 100
CC1CN=C(N(C(=O)Nc2ccccc2)c2ccc(Cl)c(Cl)c2)S1 (stereo unspecified)	> 100
CC(=O)O[C@H]1CC[C@@]2(C)C(=CC[C@H]3[C@@H]4C/C(=C\c5ccc(N(C)C)cc5)[C@H](OC(C)=O)[C@@]4(C)CC[C@@H]32)C1	> 100
CC(C)(C)[Si](C)(C)Oc1ccc(C2CNC(=O)C23CCC(=O)N3Cc2ccccc2)cc1 (stereo unspecified)	29
